Laboratory results as given in publication PMC5833756, “A novel ruthenium complex with xanthoxylin induces S-phase arrest and causes ERK1/2-mediated apoptosis in HepG2 cells through a p53-independent pathway” (Cell Death & Disease, 2018).
Like-named read-outs stand apart in the source and are kept apart here. Marks after values point to notes of the source that are not given here. Residues, ends and D or L forms follow the SMILES beside them. *: point of attachment. Cbz = O=C(OCc1ccccc1)*; CH2F = FC*

Columns and labels:
[1] = system: HepG2 cells; experiment: Annexin V/PI staining assay (flow cytometry)
Protocol: For apoptosis detection, we used the FITC Annexin V Apoptosis Detection Kit I (BD Biosciences), and the analysis was performed according to the manufacturer’s instructions. Briefly, cells were washed twice with saline and then resuspended in 100 μL of binding buffer with 5 μL of PI and 5 μL of FITC Annexin V. The cells were gently mixed by vortexing and incubated for 15 min at room temperature in the dark. Afterwards, 400 μL of binding buffer was added to each tube, and the cell fluorescence was determined by flow cytometry, as described above. The percent of viable, early apoptotic, late apoptotic and necrotic cells were determined. […] The cells were then trypsinized, and the FITC Annexin V Apoptosis Detection assay was conducted as described above.

[2] = system: HepG2 cells; experiment: Trypan blue exclusion assay; format: cell-based, human
[3] = DOX 0.3 mg/kg, 5-FU 10 mg/kg
Protocol: (§1) HepG2 cells (1 × 10^7 cells per 500 µL) were implanted subcutaneously into the left front armpit of the mice. […] The treatments were initiated one day after the tumor cell injection. The animals were treated intraperitoneally (200 µL per animal) once daily for 21 consecutive days. On the 22nd day, the animals were anesthetized, and peripheral blood samples were collected from the brachial artery. Animals were euthanized by anesthetic overdose, and tumors were excised and weighed.
To assess the toxicological effects, mice were weighed at the beginning and at the end of the experiment. […] Hematological analysis was performed using light microscopy. Livers, kidneys, lungs and hearts were removed, weighed and examined for any signs of gross lesions, color changes and/or hemorrhages. After gross macroscopic examination, the tumors, livers, kidneys, lungs and hearts were fixed in 4% formalin buffer and embedded in paraffin. Tissue sections were stained with hematoxylin and eosin chromogens, and a pathologist performed the analysis under a light microscope.

[4] = system: BAD KO SV40 MEF; format: cell-based, mouse; details: Mus musculus, 72 h
[5] = system: HepG2 cell xenografts; experiment: Human hepatocellular carcinoma xenograft model; format: in vivo, C.B-17 SCID mice; details: 0.3 mg/kg doxorubicin, 10 mg/kg 5-fluorouracil, i.p. once a day for 21 days
Protocol: Animals were housed in cages with free access to food and water. All animals were kept under a 12:12 h light-dark cycle (lights on at 6:00 a.m.). The local Animal Ethics Committee approved the experimental protocol (number 06/2015).
as §1

[6] = system: WT SV40 MEF; format: cell-based, mouse; details: Mus musculus, 72 h
[7] = system: SCC-4; format: cell-based, human; details: SCC-4 (human oral squamous cell carcinoma), 72 h
[8] = system: HepG2; format: cell-based, human; details: HepG2 (human hepatocellular carcinoma), monolayer, 72 h
[9] = system: HCT116; format: cell-based, human; details: HCT116 (human colon carcinoma), 72 h
[10] = system: K-562; format: cell-based, human; details: K-562 (human chronic myelogenous leukemia), 72 h
[11] = system: PBMC; format: cell-based; details: PBMC (human peripheral blood mononuclear cells, non-cancer), 72 h
[12] = system: HSC-3; format: cell-based, human; details: HSC-3 (human oral squamous cell carcinoma), 72 h
[13] = system: HepG2 cells; format: cell-based, human; details: DOX 2 µM, OXA 10 µM, RCX 12 µM
Protocol: Briefly, the cells were harvested in a permeabilization solution containing 0.1% Triton X-100, 2 µg/mL PI, 0.1% sodium citrate and 100 µg/mL RNAse (all from Sigma-Aldrich) and incubated in the dark for 15 min at room temperature. Finally, cell fluorescence was measured by flow cytometry with a BD LSRFortessa cytometer using BD FACSDiva Software (BD Biosciences) and FlowJo Software 10 (FlowJo Lcc; Ashland, OR, USA). Ten thousand events were evaluated per experiment, and cellular debris was omitted from the analysis.

[14] = system: MRC-5; format: cell-based; details: MRC-5 (human lung fibroblast, non-cancer), 72 h
[15] = system: B16-F10; format: cell-based, mouse; details: B16-F10 (murine melanoma), 72 h
[16] = system: multicellular spheroids formed from HepG2 cells; experiment: 3D multicellular spheroid culture, alamar blue; format: cell-based, human; details: HepG2 3D spheroids, 72 h
Protocol: HepG2 cells were cultivated in 3D multicellular spheroids. Briefly, 100 μL of cell solution (0.5 × 10^6 cells/mL) was added to a 96-well plate with a cell-repellent surface (Greiner Bio-One, Kremsmünster, Austria) and cultured in complete medium plus 3% Matrigel (BD Biosciences, San Jose, CA, USA). Spheroids with stable structures formed after three days. Then, the spheroids were exposed to a range of drug concentrations for 72 h. The negative control received the vehicle that was used for diluting the complex tested. In the end of the experiment, morphological changes were examined by light microscopy (Olympus BX41, Tokyo, Japan) using Image-Pro software (Media Cybernetics, Inc. Silver Spring, USA), and cell viability was quantified by alamar blue assay as described above.

[17] = system: HL-60; format: cell-based, human; details: HL-60 (human promyelocytic leukemia), 72 h
[18] = system: panel of 15 cancer cell lines and 3 non-cancer cells; experiment: Alamar blue cytotoxicity assay, whole panel; format: cell-based; details: any cells of the panel, 72 h
Protocol: A panel of 15 cancer cell lines, 3 non-cancer cells and 1 mutant and its parental cell line were selected for this study, as detailed in Table S5. The cells were cultured in RPMI 1640 medium (Gibco-BRL, Gaithersburg, MD, USA) with 10% fetal bovine serum (Life, Carlsbad, CA, USA), 2 mM L-glutamine (Vetec Química Fina, Duque de Caxias, RJ, Brazil) and 50 μg/mL gentamycin (Life, Carlsbad, CA, USA). Adherent cells were collected by treatment with 0.25% trypsin EDTA solution (Gibco-BRL). All cell lines were cultured in flasks at 37 °C in 5% CO2 and subcultured every 3–4 days to maintain exponential growth. All cell lines were tested for mycoplasma using a mycoplasma stain kit (Sigma-Aldrich) to validate the use of cells free from contamination. […]
Cell viability was quantified colorimetrically using the alamar blue assay according to Ahmed et al.[34]. […] Absorbance was measured at 570 nm and 600 nm using the SpectraMax 190 Microplate Reader (Molecular Devices, Sunnyvale, CA, USA), and the drug effect was quantified as a percent of the absorbance of the control-treated cells.

[19] = system: HepG2 cells; experiment: DNA synthesis quantification (methyl-[3H]-thymidine incorporation); format: cell-based, human; details: HepG2, 12 μM
Protocol: Cellular DNA synthesis was quantified by the incorporation of methyl-[^3H]-thymidine. Methyl-[^3H]-thymidine is a radiolabeled DNA precursor that is incorporated into newly synthesized DNA. Briefly, the complex was added along with 1 µCi of methyl-[^3H]-thymidine (PerkinElmer; Shelton, CT, USA) and incubated for 3 h. After this incubation period, cultures were harvested using a cell harvester (Brandel, Inc., Gaithersburg, MD, USA), and the amount of incorporated^3H-thymidine was determined using a liquid scintillation cocktail Hidex Maxilight (PerkinElmer Life Sciences; Groningen, GE, Netherlands) and a plate CHAMELEON V multilabel Counter (Mustionkatu 2, Turku, Finland). Mitoxantrone (Sigma-Aldrich) was used as the positive control.

[20] = HepG2, 2 h pretreatment (50 µM Z-VAD(Ome)-FMK, 20 µM Z-IETD-FMK, 20 µM Z-LEHD-FMK, 5 µM U-0126, 5 µM SP 600125, 5 µM PD 169316, 10 µM cyclic pifithrin-α), then 12 µM RCX 48 h
[21] = peripheral blood, i.p. 21 days, RCX 2.5 mg/kg
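For Final body weight in this document: mice bearing subcutaneous HepG2 xenografts, given intraperitoneal doses once daily for 21 days, weighed at start and end, blood leukocytes counted by light microscopy on day 22.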
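For Heart relative weight in this document: mice bearing subcutaneous HepG2 xenografts, given intraperitoneal doses once daily for 21 days, weighed at start and end, blood leukocytes counted by light microscopy on day 22.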
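For Initial body weight in this document: mice bearing subcutaneous HepG2 xenografts, given intraperitoneal doses once daily for 21 days, weighed at start and end, blood leukocytes counted by light microscopy on day 22.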
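For Kidney relative weight in this document: mice bearing subcutaneous HepG2 xenografts, given intraperitoneal doses once daily for 21 days, weighed at start and end, blood leukocytes counted by light microscopy on day 22.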

COC(=O)C[C@H](NC(=O)[C@H](C)NC(=O)[C@@H](NC(=O)OCc1ccccc1)C(C)C)C(=O)CF [Z-VAD(OMe)-FMK] (Cbz-Val-Ala-Asp(OMe)-CH2F)
effect of inhibitor pretreatment on RCX-induced apoptosis [1]: prevented the RCX-induced apoptosis

COC(=O)CC[C@H](NC(=O)[C@H](CC(C)C)NC(=O)OCc1ccccc1)C(=O)N[C@@H](Cc1cnc[nH]1)C(=O)N[C@@H](CC(=O)OC)C(=O)CF [Z-LEHD-FMK] (Cbz-LE(OMe)HD(OMe)-CH2F)
effect of inhibitor pretreatment on RCX-induced apoptosis [1, 20]: prevented the RCX-induced apoptosis

CC(=O)N[C@@H](CS)C(=O)O [N-acetyl-L-cysteine]
protection against RCX-induced reduction in viable cells ([2]; HepG2, 1 h pretreatment with 5 mM NAC, then 12 µM RCX for 24 h): did not prevent the reduction in the number of viable cells

Oc1c2ccccc2c2c3c(cccc13)N=N2 [SP 600125]
effect of inhibitor pretreatment on RCX-induced apoptosis [1, 20]: did not prevent RCX-induced apoptosis

O=c1[nH]cc(F)c(=O)[nH]1 [5-FU, 5-fluorouracil]
Initial body weight ([3]; before treatment, RCX 2.5 mg/kg groups): 25.2 ± 0.4 g
Final body weight ([3]; i.p. 21 days, RCX 2.5 mg/kg): 24.1 ± 1.7 g
Heart relative weight ([3]; i.p. 21 days, RCX 2.5 mg/kg): 0.5 ± 0.2 g/100 g body weight
Kidney relative weight ([3]; i.p. 21 days, RCX 2.5 mg/kg): 1.2 ± 0.4 g/100 g body weight
Liver relative weight ([3]; i.p. 21 days, RCX 2.5 mg/kg): 3.4 ± 0.7 g/100 g body weight
Lung relative weight ([3]; i.p. 21 days, RCX 2.5 mg/kg): 0.6 ± 0.2 g/100 g body weight
Survival ([3]; i.p. 21 days, RCX 2.5 mg/kg): 9/15
Differential leukocytes: Eosinophils [3, 21]: 1.0%
Differential leukocytes: Lymphocytes [3, 21]: 32.8%
Differential leukocytes: Monocytes [3, 21]: 1.3%
Differential leukocytes: Neutrophils [3, 21]: 65.0%
Erythrocytes [3, 21]: 8.4 ± 0.5 10^6cells/μL
Total leukocytes [3, 21]: 1.8 ± 0.3* 10^3cells/μL
IC50 [4]: 7.3 µM
reduction of tumor weight [5]: 40.3%
IC50 [6]: 1.7 µM

O=C1[O][Pt]2([NH][C@@H]3CCCC[C@H]3[NH]2)[O]C1=O [OXA, oxaliplatin]
IC50 [7]: 7.7 µM
IC50 [8]: 2.2 µM
IC50 [9]: 4.1 µM
IC50 [10]: 1 µM
IC50 [11]: 9.4 µM
IC50 [12]: 3.3 µM
DNA content S ([13]; HepG2, 12 h): 12.9 ± 4.4%
DNA content S ([13]; HepG2, 24 h): 18.5 ± 1.4%
DNA content S ([13]; HepG2, 48 h): 21.2 ± 1.7 %
DNA content S ([13]; HepG2, 72 h): 16.2 ± 1.1%
change in the number of viable cells ([2]; HepG2, 24 h, DOX 2 µM, OXA 10 µM): reduced the number of viable cells
IC50 [14]: 9.5 µM
IC50 [15]: 2.2 µM
IC50 [16]: 6.6 µM
IC50 [17]: 0.6 µM

COc1cc(O)c(C(C)=O)c(OC)c1 [xanthoxylin, 2-hydroxy-4,6-dimethoxyacetophenone]
IC50 [18]: > 127 µM

O=C1c2c(O)ccc(O)c2C(=O)c2c(NCCNCCO)ccc(NCCNCCO)c21 [Mitoxantrone]
reduction of DNA synthesis [19]: 55.2%

Cc1ccc(-c2cn3c4c(sc3n2)CCCC4)cc1 [cyclic pifithrin-α]
effect of inhibitor pretreatment on RCX-induced apoptosis [1]: did not prevent the RCX-induced apoptosis

N#CC(=C(/N)Sc1ccccc1N)/C(C#N)=C(/N)Sc1ccccc1N [U-0126]
effect of inhibitor pretreatment on RCX-induced apoptosis [1]: prevented RCX-induced apoptosis

CC[C@H](C)[C@H](NC(=O)OCc1ccccc1)C(=O)N[C@@H](CCC(=O)OC)C(=O)N[C@H](C(=O)N[C@@H](CC(=O)OC)C(=O)CF)[C@@H](C)O [Z-IETD-FMK] (Cbz-IE(OMe)TD(OMe)-CH2F)
effect of inhibitor pretreatment on RCX-induced apoptosis [1]: prevented the RCX-induced apoptosis
